# Assay results taken from patent US20210128566A1, “NOVEL FUNCTIONALIZED PURINE-2,6-DIONES AND THEIR USE IN MEDICINE” (THOMAS HELLEDAYS STIFTELSE FÖR MEDICINSK FORSKNING, priority 2017, published 2021).
# Target: recombinant human NUDT5 (Homo sapiens, UniProt Q9UKK9)
# Assay: NUDT5 inhibitor activity by malachite green reporter assay
# Type: biochemical
# Conditions: Table 3; 6 nM NUDT5, 50 μM ADP-Ribose, 15 minutes at room temperature
# Method: NUDT5 inhibitors were evaluated using a coupled enzymatic assay with detection of inorganic phosphate (Pi) using the malachite green assay. Following enzymatic hydrolysis of ADP-Ribose (Sigma-Aldrich A0572) by NUDT5, to yield AMP and ribose-5-phosphate, the latter product is continuously processed by a significant excess of alkaline phosphatase (Sigma-Aldrich, P0114). Formation of Pi is quantified based on the green complex (that absorbs at 630 nm) formed between malachite green and molybdate according to published procedure (Baykov, A. A., Evtushenko, O. A. and Avaeva, S. M., Anal Biochem, 171, 266-270 (1988)). Assay buffer consisted of 10 mM Tris-acetate at pH 8.0, 40 mM sodium chloride, 10 mM magnesium acetate, 0.005% Tween-20 and 1 mM dithiothreitol (DTT). The final conditions consisted of 6 nM recombinant human NUDT5, 50 μM ADP-Ribose and 10 U/ml of calf intestine alkaline phosphatase. The plates with compounds, enzymes and substrate were incubated at room temperature for 15 minutes, after which the reaction was terminated and the signal developed by the addition of the malachite green reagent using a MultiDrop (Thermo Scientific). Following vigorous shaking on plate shakers for a minimum of eight minutes the absorbance was read in a microplate reader (HidexSense) using a filter at 630 nm and a read time of 0.1 s per well. Inhibitors were used in dilutions from 100 μM to 1.7 nM in 3-fold dilution steps. Experiments were run in duplicate and confirmed in two independent experiments. IC50 values were determined by curve fitting using ExcelFit.
row,SMILES,IC50 [nM]
1,"Cn1c(=O)c2c(nc(N3CCC(CO)CC3)n2Cc2nnc(-c3ccc(Cl)c(Cl)c3)o2)n(C)c1=O [Example 40, 7-{[5-(3,4-dichlorophenyl)-1,3,4-oxadiazol-2-yl]methyl}-8-[4-(hydroxymethyl)piperidin-1-yl]-1,3-dimethyl-2,3,6,7-tetrahydro-1H-purine-2,6-dione]",20.3
2,"Cn1c(=O)c2c(nc(SC3CCCCC3)n2Cc2nnc(-c3ccc(Cl)c(Cl)c3)o2)n(C)c1=O [Example 7, 8-(cyclohexylsulfanyl)-7-{[5-(3,4-dichlorophenyl)-1,3,4-oxadiazol-2-yl]methyl}-1,3-dimethyl-2,3,6,7-tetrahydro-1H-purine-2,6-dione]",65.9
3,"Cn1c(=O)c2c(nc(N3CCCC(F)C3)n2Cc2nnc(-c3ccc(Cl)c(Cl)c3)o2)n(C)c1=O (stereo not drawn) [Example 41, 7-{[5-(3,4-dichlorophenyl)-1,3,4-oxadiazol-2-yl]methyl}-8-(3-fluoropiperidin-1-yl)-1,3-dimethyl-2,3,6,7-tetrahydro-1H-purine-2,6-dione]",24.2
4,"Cn1c(=O)c2c(nc(NC3CC3)n2Cc2nnc(-c3ccc(Cl)c(Cl)c3)o2)n(C)c1=O [Example 42, 8-(cyclopropylamino)-7-{[5-(3,4-dichlorophenyl)-1,3,4-oxadiazol-2-yl]methyl}-1,3-dimethyl-2,3,6,7-tetrahydro-1H-purine-2,6-dione]",26.4
5,"CC(C)c1nc2c(c(=O)n(C)c(=O)n2C)n1Cc1nnc(-c2ccc(Cl)c(Cl)c2)o1 [Example 62, 7-{[5-(3,4-dichlorophenyl)-1,3,4-oxadiazol-2-yl]methyl}-1,3-dimethyl-8-(propan-2-yl)-2,3,6,7-tetrahydro-1H-purine-2,6-dione]",> 1000
6,"CC1CN(c2nc3c(c(=O)n(C)c(=O)n3C)n2Cc2nnc(-c3ccc(Cl)c(Cl)c3)o2)CCN1 (stereo not drawn) [Example 33, 7-{[5-(3,4-dichlorophenyl)-1,3,4-oxadiazol-2-yl]methyl}-1,3-dimethyl-8-(3-methylpiperazin-1-yl)-2,3,6,7-tetrahydro-1H-purine-2,6-dione]",17.8
7,"Cn1c(=O)c2c(nc(N3CCCC3)n2Cc2nnc(-c3ccc(Cl)c(Cl)c3)o2)n(C)c1=O [Example 28, 7-{[5-(3,4-dichlorophenyl)-1,3,4-oxadiazol-2-yl]methyl}-1,3-dimethyl-8-(pyrrolidin-1-yl)-2,3,6,7-tetrahydro-1H-purine-2,6-dione]",37
8,"Cc1nc2c(c(=O)n(C)c(=O)n2C)n1Cc1nnc(-c2ccc(Cl)c(Cl)c2)o1 [Example 60, 7-{[5-(3,4-dichlorophenyl)-1,3,4-oxadiazol-2-yl]methyl}-1,3,8-trimethyl-2,3,6,7-tetrahydro-1H-purine-2,6-dione]",28.4

# The remaining lines, values ahead:
row,IC50 [nM],SMILES
1,806,"CCCCCCN1CCN(c2nc3c(c(=O)n(C)c(=O)n3C)n2Cc2nnc(-c3cccc(C)c3)o2)CC1 [Example 53, 8-(4-hexylpiperazin-1-yl)-1,3-dimethyl-7-{[5-(3-methylphenyl)-1,3,4-oxadiazol-2-yl]methyl}-2,3,6,7-tetrahydro-1H-purine-2,6-dione]"
2,32.7,"COC(=O)C1CCN(c2nc3c(c(=O)n(C)c(=O)n3C)n2Cc2nnc(-c3ccc(Cl)c(Cl)c3)o2)CC1 [Example 39, methyl 1-(7-{[5-(3,4-dichlorophenyl)-1,3,4-oxadiazol-2-yl]methyl}-1,3-dimethyl-2,6-dioxo-2,3,6,7-tetrahydro-1H-purin-8-yl)piperidine-4-carboxylate]"
3,221,"CCN1CCN(c2nc3c(c(=O)n(C)c(=O)n3C)n2Cc2nnc(-c3cccc(C)c3)o2)CC1 [Example 55, 8-(4-ethylpiperazin-1-yl)-1,3-dimethyl-7-{[5-(3-methylphenyl)-1,3,4-oxadiazol-2-yl]methyl}-2,3,6,7-tetrahydro-1H-purine-2,6-dione]"
4,> 1000,"COCCN1CCN(c2nc3c(c(=O)n(C)c(=O)n3C)n2Cc2nnc(-c3cccc(C)c3)o2)CC1 [Example 57, 8-[4-(2-methoxyethyl)piperazin-1-yl]-1,3-dimethyl-7-{[5-(3-methylphenyl)-1,3,4-oxadiazol-2-yl]methyl}-2,3,6,7-tetrahydro-1H-purine-2,6-dione]"

# Same assay, conditions: Table 4; 6 nM NUDT5, 50 μM ADP-Ribose, 15 minutes at room temperature
row,SMILES,IC50 [nM]
1,"Cn1c(=O)c2c(nc(Cl)n2Cc2nnc(-c3cccc(F)c3)o2)n(C)c1=O [Example 91, 8-chloro-7-{[5-(3-fluorophenyl)-1,3,4-oxadiazol-2-yl]methyl}-1,3-dimethyl-2,3,6,7-tetrahydro-1H-purine-2,6-dione]",2150
2,"Cn1c(=O)c2c(nc(N3CCNCC3)n2Cc2nnc(-c3ccc(N4CCNCC4)nc3)o2)n(C)c1=O [Example 114, 1,3-dimethyl-8-(piperazin-1-yl)-7-({5-[6-(piperazin-1-yl)pyridin-3-yl]-1,3,4-oxadiazol-2-yl}methyl)-2,3,6,7-tetrahydro-1H-purine-2,6-dione]",29000
3,"Cn1c(=O)c2c(nc(N3CCNCC3)n2Cc2coc(-c3ccc(Cl)c(Cl)c3)n2)n(C)c1=O [Example 72, 7-{[2-(3,4-dichlorophenyl)-1,3-oxazol-4-yl]methyl}-1,3-dimethyl-8-(piperazin-1-yl)-2,3,6,7-tetrahydro-1H-purine-2,6-dione]",21
4,"Cn1c(=O)c2c(nc(Cl)n2Cc2nnc(-c3cccnc3)o2)n(C)c1=O [Example 94, 8-chloro-1,3-dimethyl-7-{[5-(pyridin-3-yl)-1,3,4-oxadiazol-2-yl]methyl}-2,3,6,7-tetrahydro-1H-purine-2,6-dione]",6910
5,"COc1cc(-c2nnc(Cn3c(N4CCC(N(C)C)CC4)nc4c3c(=O)n(C)c(=O)n4C)o2)ccc1C [Example 126, 8-[4-(dimethylamino)piperidin-1-yl]-7-{[5-(3-methoxy-4-methylphenyl)-1,3,4-oxadiazol-2-yl]methyl}-1,3-dimethyl-2,3,6,7-tetrahydro-1H-purine-2,6-dione]",39.1
6,"Cc1ccc(-c2cc(Cn3c(N4CCNCC4)nc4c3c(=O)n(C)c(=O)n4C)no2)cc1 [Example 79, 1,3-dimethyl-7-{[5-(4-methylphenyl)-1,2-oxazol-3-yl]methyl}-8-(piperazin-1-yl)-2,3,6,7-tetrahydro-1H-purine-2,6-dione]",530
7,"Cn1c(=O)c2c(nc(N3CCNCC3)n2Cc2nnc(-c3ccccc3)o2)n(C)c1=O [Example 107, 1,3-dimethyl-7-[(5-phenyl-1,3,4-oxadiazol-2-yl)methyl]-8-(piperazin-1-yl)-2,3,6,7-tetrahydro-1H-purine-2,6-dione]",212
8,"Cn1c(=O)c2c(nc(Cl)n2Cc2nnc(-c3ccccc3)o2)n(C)c1=O [Example 88, 8-chloro-1,3-dimethyl-7-[(5-phenyl-1,3,4-oxadiazol-2-yl)methyl]-2,3,6,7-tetrahydro-1H-purine-2,6-dione]",3590
9,"Cn1c(=O)c2c(nc(Cl)n2Cc2nnc(-c3ccc4cc[nH]c4c3)o2)n(C)c1=O [Example 101, 8-chloro-7-{[5-(1H-indol-6-yl)-1,3,4-oxadiazol-2-yl]methyl}-1,3-dimethyl-2,3,6,7-tetrahydro-1H-purine-2,6-dione]",358
10,"Cn1c(=O)c2c(nc(Cl)n2Cc2nnc(-c3ccc(C#N)cc3)o2)n(C)c1=O [Example 93, 4-{5-[(8-chloro-1,3-dimethyl-2,6-dioxo-2,3,6,7-tetrahydro-1H-purin-7-yl)methyl]-1,3,4-oxadiazol-2-yl}benzonitrile]",918

# More lines, now with the values ahead:
row,IC50 [nM],SMILES
1,226,"Cn1c(=O)c2c(nc(N3CCN(CCNC(=O)OC(C)(C)C)CC3)n2Cc2nnc(-c3ccc(Cl)c(Cl)c3)o2)n(C)c1=O [Example 64, tert-butyl N-{2-[4-(7-{[5-(3,4-dichlorophenyl)-1,3,4-oxadiazol-2-yl]methyl}-1,3-dimethyl-2,6-dioxo-2,3,6,7-tetrahydro-1H-purin-8-yl)piperazin-1-yl]ethyl}carbamate]"
2,35.7,"COc1cc(-c2nnc(Cn3c(N4CCNCC4)nc4c3c(=O)n(C)c(=O)n4C)o2)ccc1C [Example 119, 7-{[5-(3-methoxy-4-methylphenyl)-1,3,4-oxadiazol-2-yl]methyl}-1,3-dimethyl-8-(piperazin-1-yl)-2,3,6,7-tetrahydro-1H-purine-2,6-dione]"
3,64.2,"COc1cc(-c2nnc(Cn3c(N4CCNCC4)nc4c3c(=O)n(C)c(=O)n4C)o2)ccc1Cl [Example 117, 7-{[5-(4-chloro-3-methoxyphenyl)-1,3,4-oxadiazol-2-yl]methyl}-1,3-dimethyl-8-(piperazin-1-yl)-2,3,6,7-tetrahydro-1H-purine-2,6-dione]"
4,9440,"Cn1c(=O)c2c(nc(N3CCN(C(=O)OC(C)(C)C)CC3)n2Cc2nnc(-c3ccc([N+](=O)[O-])cc3)o2)n(C)c1=O [Example 100, tert-butyl 4-(1,3-dimethyl-7-{[5-(4-nitrophenyl)-1,3,4-oxadiazol-2-yl]methyl}-2,6-dioxo-2,3,6,7-tetrahydro-1H-purin-8-yl)piperazine-1-carboxylate]"
5,216,"Cc1ccc(-c2nnc(Cn3c(N4CCNCC4)nc4c3c(=O)n(C)c(=O)n4C)o2)cn1 [Example 125, 1,3-dimethyl-7-{[5-(6-methylpyridin-3-yl)-1,3,4-oxadiazol-2-yl]methyl}-8-(piperazin-1-yl)-2,3,6,7-tetrahydro-1H-purine-2,6-dione]"
